Assay results published in patent US9095623B2, “Terminally-functionalized conjugates and uses thereof” (SmartCells, Inc., priority 2009, dated 2015).

Test: Blood glucose depression profile after subcutaneous injection in fasted normal non-diabetic rats
Assay type: in vivo, Male Sprague-Dawley rats
Experimental: Subcutaneous injections of the insulin-dextran were administered using 0.25 ml of a sterilized 1×PBS solution ([…] of equivalent insulin/ml) behind the neck of fasted normal non-diabetic rats (Male Sprague-Dawley, 200-250 g, n=4). Blood samples were collected via tail vein bleeding at −15 and 0 minutes, and at 15, 30, 45, 60, 90, 120, 180, 240, 300 and 360 minutes after injection.
This example evaluates the in vivo pharmacodynamic profile of subcutaneously administered insulin-glycogen. The insulin-glycogen conjugate was synthesized according to Example 8. The bioactivity of the insulin-glycogen conjugate was evaluated by injecting a 2.5 equivalent U of insulin/kg dose behind the neck of fasted normal non-diabetic rats (Male Sprague-Dawley, 200-250 g, n=4). Blood samples were collected via tail vein bleeding at −15 and 0 minutes, and at 15, 30, 45, 60, 90, 120, 180, 240, 300 and 360 minutes after injection. […] This rapid action and elimination profile is due to the rapid enzymatic digestion of the high MW glycogen polymer chain following subcutaneous injection.

[1] = 0.25 ml of 20 U of equivalent insulin/ml, FIG. 5

Substance | time serum glucose levels remain depressed post injection [1] | time to reach the glucose nadir (Tnadir) [1] | glucose lowering as compared to the insulin-dextran conjugates (2.5 equivalent U of insulin/kg, FIG. 6)
insulin-dextran: comparative conjugate of recombinant human insulin and dextran (MW 70K) made by CNBr coupling | at least five | about 3 hours | 
insulin-glycogen: comparative conjugate of insulin and oyster glycogen (Type II) made by CNBr coupling, Example 8 |  |  | lower glucose levels much more rapidly and to a greater extent
